{
  "source": "patent US9090600B2",
  "about": "“Fungicidal 4-substituted-3-{phenyl[(heterocyclylmethoxy)imino]methyl}-1,2,4-oxadizol-5(4H)-one derivatives” (BAYER INTELLECTUAL PROPERTY GMBH, priority 2011, dated 2015)",
  "note": "Marks after values point to notes of the source that are not given here.",
  "data": [
    {"conditions": "pH 2.7", "values": [
      {"smiles": "Cn1c(C(=NOCc2cccc(NC(=O)OCCCCCCCl)n2)c2ccccc2)noc1=O", "note": "[compound 486]", "LogP": "4.49 [a]"},
      {"smiles": "Cc1ccccc1COC(=O)Nc1cccc(CON=C(c2ccccc2)c2noc(=O)n2C)n1", "note": "[compound 487]", "LogP": "4.29 [a]"},
      {"smiles": "CCC=CCCCOC(=O)Nc1cccc(CON=C(c2ccccc2)c2noc(=O)n2C)n1", "note": "[compound 488]", "LogP": "4.78 [a]"},
      {"smiles": "COC(=O)C(C)(C)COC(=O)Nc1cccc(CON=C(c2ccccc2)c2noc(=O)n2C)n1", "note": "[compound 489]", "LogP": "3.65 [a]"},
      {"smiles": "C=CCOCCOC(=O)Nc1cccc(CON=C(c2ccccc2)c2noc(=O)n2C)n1", "note": "[compound 490]", "LogP": "3.37 [a]"},
      {"smiles": "COC(=O)C(C)COC(=O)Nc1cccc(CON=C(c2ccccc2)c2noc(=O)n2C)n1", "note": "(stereo not drawn) [compound 491]", "LogP": "3.33 [a]"},
      {"smiles": "CC(C)c1ccc(OC(=O)Nc2cccc(CON=C(c3ccccc3)c3noc(=O)n3C)n2)cc1", "note": "[compound 492]", "LogP": "4.67 [a]"},
      {"smiles": "Cc1cccc(C)c1OC(=O)Nc1cccc(CON=C(c2ccccc2)c2noc(=O)n2C)n1", "note": "[compound 494]", "LogP": "4.2 [a]"},
      {"smiles": "Cn1c(C(=NOCc2cccc(NC(=O)OCc3ccccc3F)n2)c2ccccc2)noc1=O", "note": "[compound 495]", "LogP": "4.01 [a]"},
      {"smiles": "Cn1c(C(=NOCc2cccc(NC(=O)OCCOC3CCCCC3)n2)c2ccccc2)noc1=O", "note": "[compound 496]", "LogP": "4.31 [a]"},
      {"smiles": "Cn1c(C(=NOCc2cccc(NC(=O)OCCCc3cccnc3)n2)c2ccccc2)noc1=O", "note": "[compound 497]", "LogP": "2.11 [a]"},
      {"smiles": "Cc1cc(C)cc(COC(=O)Nc2cccc(CON=C(c3ccccc3)c3noc(=O)n3C)n2)c1", "note": "[compound 498]", "LogP": "4.68 [a]"},
      {"smiles": "Cn1c(C(=NOCc2cccc(NC(=O)OCC(F)(F)F)n2)c2ccccc2)noc1=O", "note": "[compound 500]", "LogP": "3.57 [a]"},
      {"smiles": "Cn1c(C(=NOCc2cccc(NC(=O)OCc3cccc(F)c3)n2)c2ccccc2)noc1=O", "note": "[compound 501]", "LogP": "4.01 [a]"},
      {"smiles": "CC(OC(=O)Nc1cccc(CON=C(c2ccccc2)c2noc(=O)n2C)n1)C1CCCC1", "note": "(stereo not drawn) [compound 502]", "LogP": "4.82 [a]"},
      {"smiles": "CCC#CCOC(=O)Nc1cccc(CON=C(c2ccccc2)c2noc(=O)n2C)n1", "note": "[compound 503]", "LogP": "3.78 [a]"},
      {"smiles": "C=C(C)COC(=O)Nc1cccc(CON=C(c2ccccc2)c2noc(=O)n2C)n1", "note": "[compound 504]", "LogP": "3.73 [a]"},
      {"smiles": "CC=CCCCOC(=O)Nc1cccc(CON=C(c2ccccc2)c2noc(=O)n2C)n1", "note": "[compound 505]", "LogP": "4.39 [a]"},
      {"smiles": "CC(C)CCCCOC(=O)Nc1cccc(CON=C(c2ccccc2)c2noc(=O)n2C)n1", "note": "[compound 506]", "LogP": "5.17 [a]"},
      {"smiles": "CCCC=CCOC(=O)Nc1cccc(CON=C(c2ccccc2)c2noc(=O)n2C)n1", "note": "[compound 507]", "LogP": "4.56 [a]"},
      {"smiles": "CC=CCCCOC(=O)Nc1cccc(CON=C(c2ccccc2)c2noc(=O)n2C)n1", "note": "[compound 509]", "LogP": "4.44 [a]"},
      {"smiles": "CCCC#CCCOC(=O)Nc1cccc(CON=C(c2ccccc2)c2noc(=O)n2C)n1", "note": "[compound 511]", "LogP": "4.31 [a]"},
      {"smiles": "CC(=O)OCCCCOC(=O)Nc1cccc(CO/N=C(/c2ccccc2)c2noc(=O)n2C)n1", "note": "[compound 514]", "LogP": "3.35 [a]"},
      {"smiles": "C=CC(=O)OCCOC(=O)Nc1cccc(CO/N=C(/c2ccccc2)c2noc(=O)n2C)n1", "note": "[compound 515]", "LogP": "3.21 [a]"},
      {"smiles": "CSCCCOC(=O)Nc1cccc(CO/N=C(/c2ccccc2)c2noc(=O)n2C)n1", "note": "[compound 516]", "LogP": "3.68 [a]"},
      {"smiles": "Cn1c(/C(=N\\OCc2cccc(NC(=O)OCCCl)n2)c2ccccc2)noc1=O", "note": "[compound 518]", "LogP": "3.29 [a]"},
      {"smiles": "CCC1(COC(=O)Nc2cccc(CO/N=C(/c3ccccc3)c3noc(=O)n3C)n2)COC1", "note": "[compound 520]", "LogP": "3.27 [a]"},
      {"smiles": "Cc1ccccc1OC(=O)Nc1cccc(CO/N=C(/c2ccccc2)c2noc(=O)n2C)n1", "note": "[compound 521]", "LogP": "3.96 [a]"},
      {"smiles": "CC/C=C/CCOC(=O)Nc1cccc(CO/N=C(/c2ccccc2)c2noc(=O)n2C)n1", "note": "[compound 522]", "LogP": "4.46 [a]"},
      {"smiles": "Cn1c(/C(=N\\OCc2cccc(NC(=O)OCCCC3CCCCC3)n2)c2ccccc2)noc1=O", "note": "[compound 523]", "LogP": "5.71 [a]"},
      {"smiles": "Cn1c(/C(=N\\OCc2cccc(NC(=O)OCC3CCOC3)n2)c2ccccc2)noc1=O", "note": "(stereo not drawn) [compound 524]", "LogP": "2.98 [a]"},
      {"smiles": "Cn1c(/C(=N\\OCc2cccc(NC(=O)OCC3CC=CCC3)n2)c2ccccc2)noc1=O", "note": "(stereo not drawn) [compound 526]", "LogP": "4.51 [a]"},
      {"smiles": "Cn1c(/C(=N\\OCc2cccc(NC(=O)OCc3cccs3)n2)c2ccccc2)noc1=O", "note": "[compound 527]", "LogP": "3.83 [a]"},
      {"smiles": "Cn1c(/C(=N\\OCc2cccc(NC(=O)OCc3ccc(F)cc3)n2)c2ccccc2)noc1=O", "note": "[compound 528]", "LogP": "3.99 [a]"},
      {"smiles": "Cn1c(/C(=N\\OCc2cccc(NC(=O)OCC3COCO3)n2)c2ccccc2)noc1=O", "note": "(stereo not drawn) [compound 529]", "LogP": "2.73 [a]"},
      {"smiles": "CCCOCCOC(=O)Nc1cccc(CO/N=C(/c2ccccc2)c2noc(=O)n2C)n1", "note": "[compound 531]", "LogP": "3.57 [a]"},
      {"smiles": "COc1ccc(OC(=O)Nc2cccc(CO/N=C(/c3ccccc3)c3noc(=O)n3C)n2)cc1", "note": "[compound 532]", "LogP": "3.69 [a]"},
      {"smiles": "Cn1c(/C(=N\\OCc2cccc(NC(=O)OCCC3CCCC3)n2)c2ccccc2)noc1=O", "note": "[compound 533]", "LogP": "4.9 [a]"},
      {"smiles": "CCC/C=C\\COC(=O)Nc1cccc(CO/N=C(/c2ccccc2)c2noc(=O)n2C)n1", "note": "[compound 535]", "LogP": "4.53 [a]"},
      {"smiles": "Cn1c(/C(=N\\OCc2cccc(NC(=O)OCC(Cl)(Cl)Cl)n2)c2ccccc2)noc1=O", "note": "[compound 536]", "LogP": "4.15 [a]"},
      {"smiles": "Cn1c(/C(=N\\OCc2cccc(NC(=O)OCCC3CCOCC3)n2)c2ccccc2)noc1=O", "note": "[compound 537]", "LogP": "3.44 [a]"},
      {"smiles": "CC/C=C\\CCOC(=O)Nc1cccc(CO/N=C(/c2ccccc2)c2noc(=O)n2C)n1", "note": "[compound 540]", "LogP": "4.44 [a]"},
      {"smiles": "Cn1c(/C(=N\\OCc2cccc(NC(=O)OCC3CCCCC3)n2)c2ccccc2)noc1=O", "note": "[compound 541]", "LogP": "4.88 [a]"},
      {"smiles": "Cn1c(/C(=N\\OCc2cccc(NC(=O)OCC[Si](C)(C)C)n2)c2ccccc2)noc1=O", "note": "[compound 542]", "LogP": "4.88 [a]"},
      {"smiles": "Cn1c(/C(=N\\OCc2cccc(NC(=O)OCCCCl)n2)c2ccccc2)noc1=O", "note": "[compound 544]", "LogP": "3.6 [a]"},
      {"smiles": "CC(C)OCCOC(=O)Nc1cccc(CO/N=C(/c2ccccc2)c2noc(=O)n2C)n1", "note": "[compound 545]", "LogP": "3.44 [a]"},
      {"smiles": "Cc1ccc(COC(=O)Nc2cccc(CO/N=C(/c3ccccc3)c3noc(=O)n3C)n2)cc1", "note": "[compound 546]", "LogP": "4.31 [a]"},
      {"smiles": "COC(=O)Nc1cccc(CO/N=C(/c2ccccc2)c2noc(=O)n2C)n1", "note": "[compound 547]", "LogP": "2.84 [a]"},
      {"smiles": "CC#CCCOC(=O)Nc1cccc(CO/N=C(/c2ccccc2)c2noc(=O)n2C)n1", "note": "[compound 548]", "LogP": "3.58 [a]"},
      {"smiles": "Cn1c(/C(=N\\OCc2cccc(NC(=O)OCCCC3CC3)n2)c2ccccc2)noc1=O", "note": "[compound 549]", "LogP": "4.37 [a]"},
      {"smiles": "Cn1c(/C(=N\\OCc2cccc(NC(=O)OCCCCCl)n2)c2ccccc2)noc1=O", "note": "[compound 550]", "LogP": "3.83 [a]"},
      {"smiles": "Cn1c(/C(=N\\OCc2cccc(NC(=O)OCCF)n2)c2ccccc2)noc1=O", "note": "[compound 551]", "LogP": "2.96 [a]"},
      {"smiles": "CC(C)c1cccc(OC(=O)Nc2cccc(CO/N=C(/c3ccccc3)c3noc(=O)n3C)n2)c1", "note": "[compound 553]", "LogP": "4.64 [a]"},
      {"smiles": "CCOC(=O)COC(=O)Nc1cccc(CO/N=C(/c2ccccc2)c2noc(=O)n2C)n1", "note": "[compound 554]", "LogP": "3.21 [a]"}
    ]}
  ]
}
